# Molecular target: T1, hSTING (Homo sapiens, UniProt Q86WV6, G230A/H232R/R293Q/R71H)
# T1 construct: host or cells: THP1-Dual KO-IFNAR2 cells
# Test: STING reporter assay (luciferase) in THP1-Dual KO-IFNAR2 cells stimulated with 2′3′cGAMP
# Type: cell-based
# Details: 2′3′cGAMP 15 μM, 24 h, class symbols
# Experimental: STING pathway activation by the compounds described herein was measured using THP1-Dual™ cells (KO-IFNAR2).
# THP1-Dual™ KO-IFNAR2 Cells (obtained from invivogen) were maintained in RPMI, 10% FCS, 5 ml P/S, 2 mM L-glut, 10 mM Hepes, and 1 mM sodium pyruvate. Compounds were spotted in empty 384 well tissue culture plates (Greiner 781182) by Echo for a final concentration of 0.0017-100 μM. Cells were plated into the TC plates at […], 2×10E6 cells/mL. For activation with STING ligand, 2′3′cGAMP (MW 718.38, obtained from Invivogen), was prepared in Optimem media.
# The following solutions were prepared for each 1×384 plate: • Solution A: 2 mL Optimem with one of the following stimuli: • […] • Solution B: 2 mL Optimem with 60 μL Lipofectamine 2000->Incubate 5 min at RT
# 2 mL of solution A and 2 ml Solution B was mixed and incubated for 20 min at room temperature (RT). 20 uL of transfection solution (A+B) was added on top of the plated cells, with a final 2′3′cGAMP concentration of 15 μM. The plates were then centrifuged immediately at 340 g for 1 minute, after which they were incubated at 37° C., 5% CO2, >98% humidity for 24 h. Luciferase reporter activity was then measured. EC50 values were calculated by using standard methods known in the art.
# Luciferase reporter assay: 10 μL of supernatant from the assay was transferred to white 384-plate with flat bottom and squared wells. One pouch of QUANTI-Luc™ Plus was dissolved in 25 mL of water. 100 μL of QLC Stabilizer per 25 mL of QUANTI-Luc™ Plus solution was added. 50 μL of QUANTI-Luc™ Plus/QLC solution per well was then added. Luminescence was measured on a Platereader (e.g., Spectramax I3X (Molecular Devices GF3637001)).
# Luciferase reporter activity was then measured. EC50 values were calculated by using standard methods known in the art.
# T1 sequence (Q86WV6 whole entry R71H/G230A/H232R/R293Q): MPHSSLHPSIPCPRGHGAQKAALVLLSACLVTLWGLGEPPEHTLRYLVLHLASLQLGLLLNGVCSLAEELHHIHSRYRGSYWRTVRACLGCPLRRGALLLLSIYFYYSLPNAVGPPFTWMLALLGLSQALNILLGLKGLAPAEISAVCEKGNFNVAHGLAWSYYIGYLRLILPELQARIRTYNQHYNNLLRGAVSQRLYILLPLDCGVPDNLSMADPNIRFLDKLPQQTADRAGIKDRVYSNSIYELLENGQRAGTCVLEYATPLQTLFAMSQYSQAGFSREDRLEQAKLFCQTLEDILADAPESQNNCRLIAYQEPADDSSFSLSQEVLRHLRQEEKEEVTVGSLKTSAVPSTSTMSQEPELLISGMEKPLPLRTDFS
row,Structure (SMILES),EC50
1,"O=C(Nc1ccc(C2CCC(F)(F)CC2)nc1)Nc1c[nH]c2nc(Br)c(F)cc12 [Compound 180, 1-(6-bromo-5-fluoro-1H-pyrrolo[2,3-b]pyridin-3-yl)-3-(6-(4,4-difluorocyclohexyl)pyridin-3-yl)urea]",5000 to 100000 nM
2,"COc1ccc2[nH]cc(NC(=O)Nc3cnc(N4CCC(F)(F)CC4)c(Cl)c3)c2n1 [Compound 141, 1-(5-chloro-6-(4,4-difluoropiperidin-1-yl)pyridin-3-yl)-3-(5-methoxy-1H-pyrrolo[3,2-b]pyridin-3-yl)urea]",200 to 1000 nM
3,"O=C(Nc1cnc(C2CCN(CC(F)(F)F)C2)c(Cl)c1)Nc1c[nH]c2cccnc12 (stereo not shown) [Compound 216, 1-(5-chloro-6-(1-(2,2,2-trifluoroethyl)pyrrolidin-3-yl)pyridin-3-yl)-3-(1H-pyrrolo[3,2-b]pyridin-3-yl)urea]",1000 to 5000 nM
4,"COc1ccc2[nH]cc(NC(=O)Nc3cnc(C4CCC(F)(F)CC4)c(Cl)c3)c2n1 [Compound 233, 1-(5-chloro-6-(4,4-difluorocyclohexyl)pyridin-3-yl)-3-(5-methoxy-1H-pyrrolo[3,2-b]pyridin-3-yl)urea]",40 to 200 nM
5,"O=C(Nc1ccc(C2CCC(F)(F)CC2)nc1)Nc1c[nH]c2ncc(-c3cccc(CO)c3)cc12 [Compound 105, 1-(6-(4,4-difluorocyclohexyl)pyridin-3-yl)-3-(5-(3-(hydroxymethyl)phenyl)-1H-pyrrolo[2,3-b]pyridin-3-yl)urea]",5000 to 100000 nM
6,"COC1CCN(c2ncc(NC(=O)Nc3c[nH]c4ncc(F)cc34)cc2C)CC1 [Compound 194, 1-(5-fluoro-1H-pyrrolo[2,3-b]pyridin-3-yl)-3-(6-(4-methoxypiperidin-1-yl)-5-methylpyridin-3-yl)urea]",1000 to 5000 nM
7,"CC(C)n1cc(-c2cnc3[nH]cc(NC(=O)Nc4ccc(C5CCC(F)(F)CC5)nc4)c3c2)cn1 [Compound 107, 1-(6-(4,4-difluorocyclohexyl)pyridin-3-yl)-3-(5-(1-isopropyl-1H-pyrazol-4-yl)-1H-pyrrolo[2,3-b]pyridin-3-yl)urea]",200 to 1000 nM
8,"O=C(Nc1cnc(N2CCC3(CC2)CCC(F)(F)CO3)c(Cl)c1)Nc1c[nH]c2cccnc12 [Compound 207, 1-(5-chloro-6-(3,3-difluoro-1-oxa-9-azaspiro[5.5]undecan-9-yl)pyridin-3-yl)-3-(1H-pyrrolo[3,2-b]pyridin-3-yl)urea]",5000 to 100000 nM
9,"N#Cc1cc(NC(=O)Nc2c[nH]c3ncc(Cl)cc23)cnc1C1CCC(F)(F)CC1 [Compound 151, 1-(5-chloro-1H-pyrrolo[2,3-b]pyridin-3-yl)-3-(5-cyano-6-(4,4-difluorocyclohexyl)pyridin-3-yl)urea]",200 to 1000 nM
10,"COc1ccc2[nH]cc(NC(=O)Nc3cnc(N4CC(F)(F)C4)c(F)c3)c2n1 [Compound 232, 1-(6-(3,3-difluoroazetidin-1-yl)-5-fluoropyridin-3-yl)-3-(5-methoxy-1H-pyrrolo[3,2-b]pyridin-3-yl)urea]",1000 to 5000 nM
11,"O=C(Nc1cnc(N2CCC(F)(F)CC2)c(Cl)c1)Nc1c[nH]c2ncccc12 [Compound 189, 1-(5-chloro-6-(4,4-difluoropiperidin-1-yl)pyridin-3-yl)-3-(1H-pyrrolo[2,3-b]pyridin-3-yl)urea]",200 to 1000 nM
12,"O=C(Nc1cc(Cl)c(N2CCC(F)(F)CC2)cn1)Nc1c[nH]c2ncc(F)cc12 [Compound 186, 1-(4-chloro-5-(4,4-difluoropiperidin-1-yl)pyridin-2-yl)-3-(5-fluoro-1H-pyrrolo[2,3-b]pyridin-3-yl)urea]",200 to 1000 nM
13,"O=C(Nc1cnc(N2CCC(F)(F)CC2)c(F)c1)Nc1c[nH]c2cccnc12 [Compound 230, 1-(6-(4,4-difluoropiperidin-1-yl)-5-fluoropyridin-3-yl)-3-(1H-pyrrolo[3,2-b]pyridin-3-yl)urea]",200 to 1000 nM
14,"N#Cc1cc(NC(=O)Nc2c[nH]c3cccnc23)ccc1C1CCC(F)(F)CC1 [Compound 148, 1-(3-cyano-4-(4,4-difluorocyclohexyl)phenyl)-3-(1H-pyrrolo[3,2-b]pyridin-3-yl)urea]",200 to 1000 nM
15,"COc1cc(NC(=O)Nc2c[nH]c3ncc(F)cc23)cnc1N1CCC(F)(F)CC1 [Compound 165, 1-(6-(4,4-difluoropiperidin-1-yl)-5-methoxypyridin-3-yl)-3-(5-fluoro-1H-pyrrolo[2,3-b]pyridin-3-yl)urea]",200 to 1000 nM
16,"O=C(Nc1cnc(N2CCC(F)(F)CC2)c(Cl)c1)Nc1c[nH]c2ccc(Cl)nc12 [Compound 144, 1-(5-chloro-1H-pyrrolo[3,2-b]pyridin-3-yl)-3-(5-chloro-6-(4,4-difluoropiperidin-1-yl)pyridin-3-yl)urea]",200 to 1000 nM
17,"COCCOc1ccc2[nH]cc(NC(=O)Nc3cnc(C4CCC(F)(F)CC4)c(F)c3)c2n1 [Compound 210, 1-(6-(4,4-difluorocyclohexyl)-5-fluoropyridin-3-yl)-3-(5-(2-methoxyethoxy)-1H-pyrrolo[3,2-b]pyridin-3-yl)urea]",200 to 1000 nM
18,"O=C(Nc1cnc(N2CCN(CC(F)(F)F)CC2)c(Cl)c1)Nc1c[nH]c2cccnc12 [Compound 227, 1-(5-chloro-6-(4-(2,2,2-trifluoroethyl)piperazin-1-yl)pyridin-3-yl)-3-(1H-pyrrolo[3,2-b]pyridin-3-yl)urea]",200 to 1000 nM
19,"COc1ccc2[nH]cc(NC(=O)Nc3cnc(N4CCC(F)(F)CC4)c(F)c3)c2n1 [Compound 187, 1-(6-(4,4-difluoropiperidin-1-yl)-5-fluoropyridin-3-yl)-3-(5-methoxy-1H-pyrrolo[3,2-b]pyridin-3-yl)urea]",200 to 1000 nM
20,"O=C(Nc1ccc(C2CCC(F)(F)CC2)nc1)Nc1c[nH]c2ccc(OCCC(F)(F)F)nc12 [Compound 204, 1-(6-(4,4-difluorocyclohexyl)pyridin-3-yl)-3-(5-(3,3,3-trifluoropropoxy)-1H-pyrrolo[3,2-b]pyridin-3-yl)urea]",1000 to 5000 nM
21,"COc1ccc2[nH]cc(NC(=O)Nc3cnc(N4CC(F)(F)C4)c(Cl)c3)c2n1 [Compound 231, 1-(5-chloro-6-(3,3-difluoroazetidin-1-yl)pyridin-3-yl)-3-(5-methoxy-1H-pyrrolo[3,2-b]pyridin-3-yl)urea]",200 to 1000 nM
22,"COc1ccc2[nH]cc(NC(=O)Nc3cnc(C4CCC(F)(F)CC4)c(C#N)c3)c2n1 [Compound 140, 1-(5-cyano-6-(4,4-difluorocyclohexyl)pyridin-3-yl)-3-(5-methoxy-1H-pyrrolo[3,2-b]pyridin-3-yl)urea]",200 to 1000 nM
23,"COc1cc(NC(=O)Nc2c[nH]c3ncc(F)cc23)cnc1C1CCC(F)(F)CC1 [Compound 164, 1-(6-(4,4-difluorocyclohexyl)-5-methoxypyridin-3-yl)-3-(5-fluoro-1H-pyrrolo[2,3-b]pyridin-3-yl)urea]",200 to 1000 nM
24,"O=C(Nc1cnc(C2CCC(F)(F)CC2)c(CO)c1)Nc1c[nH]c2ncc(F)cc12 [Compound 158, 1-(6-(4,4-difluorocyclohexyl)-5-(hydroxymethyl)pyridin-3-yl)-3-(5-fluoro-1H-pyrrolo[2,3-b]pyridin-3-yl)urea]",5000 to 100000 nM

# Same assay, conditions: 2′3′cGAMP 15 μM, 24 h, numeric bounds
row,Structure (SMILES),EC50
1,"Cc1cc(N2CCC(F)(F)CC2)cnc1NC(=O)Nc1c[nH]c2ncc(F)cc12 [Compound 177, 1-(5-(4,4-difluoropiperidin-1-yl)-3-methylpyridin-2-yl)-3-(5-fluoro-1H-pyrrolo[2,3-b]pyridin-3-yl)urea]",> 30000 nM
2,"O=C(Nc1ccc(C2CCC(F)(F)CC2)nc1)Nc1cn(C2CCCNC2)c2ncc(F)cc12 (stereo not shown) [Compound 123, 1-(6-(4,4-difluorocyclohexyl)pyridin-3-yl)-3-(5-fluoro-1-(piperidin-3-yl)-1H-pyrrolo[2,3-b]pyridin-3-yl)urea]",> 30000 nM
3,"O=C(Nc1cnn(CC2CCC(F)(F)CC2)c1)Nc1c[nH]c2cccnc12 [Compound 206, 1-(1-((4,4-difluorocyclohexyl)methyl)-1H-pyrazol-4-yl)-3-(1H-pyrrolo[3,2-b]pyridin-3-yl)urea]",> 30000 nM
4,"O=C(Nc1cnn(C2CCC(F)(F)CC2)c1)Nc1c[nH]c2cccnc12 [Compound 205, 1-(1-(4,4-difluorocyclohexyl)-1H-pyrazol-4-yl)-3-(1H-pyrrolo[3,2-b]pyridin-3-yl)urea]",> 30000 nM
5,"Cc1cc(N2CCC(F)(F)CC2)ncc1NC(=O)Nc1c[nH]c2ncc(F)cc12 [Compound 185, 1-(6-(4,4-difluoropiperidin-1-yl)-4-methylpyridin-3-yl)-3-(5-fluoro-1H-pyrrolo[2,3-b]pyridin-3-yl)urea]",> 30000 nM
6,"O=C(Nc1ccc(C2CCC(F)(F)CC2)nc1)Nc1cn(C2CCNCC2)c2ncc(F)cc12 [Compound 128, 1-(6-(4,4-difluorocyclohexyl)pyridin-3-yl)-3-(5-fluoro-1-(piperidin-4-yl)-1H-pyrrolo[2,3-b]pyridin-3-yl)urea]",> 30000 nM
7,"Cc1cc(N2CCC(F)(F)CC2)ncc1NC(=O)Nc1c[nH]c2nccc(C)c12 [Compound 179, 1-(6-(4,4-difluoropiperidin-1-yl)-4-methylpyridin-3-yl)-3-(4-methyl-1H-pyrrolo[2,3-b]pyridin-3-yl)urea]",> 30000 nM

# From patent publication US20230115274A1, “COMPOUNDS AND COMPOSITIONS FOR TREATING CONDITIONS ASSOCIATED WITH STING ACTIVITY” (IFM Due, Inc., priority 2019, published 2023)
